# Experimental data: the supplement of paper PMC10307832
# Tests used:
# Experiment in all cases: relative viability (nuclei count vs DMSO), 5 days (fraction); higher = more cells survive
# AZ505 + Pictilisib = compound: C1CCC(CC1)N(CCNCCC2=C3C(=C(C=C2)O)NC(=O)CO3)C(=O)CCNCCC4=CC(=C(C=C4)Cl)Cl [AZ505] + CS(=O)(=O)N1CCN(Cc2cc3nc(-c4cccc5[nH]ncc45)nc(N4CCOCC4)c3s2)CC1 [Pictilisib] (partner 1 µM)
# How it was run: (§1)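 Lung cancer cell lines were pin-tool dosed in 1536-well plates on the day after seeding, with either a lone drug or a fixed anchor-drug dose plus five library-drug doses (not always all listed) in √10 steps. Nuclei were counted on 4× images after 5 days. Relative viability is the ratio of treated-well to vehicle-well nuclei counts, with each value a median of duplicate plates.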
# Dactolisib + Trametinib = compound: Cn1c(=O)n(-c2ccc(C(C)(C)C#N)cc2)c2c3cc(-c4cnc5ccccc5c4)ccc3ncc21 [Dactolisib] + CC(=O)Nc1cccc(-n2c(=O)n(C3CC3)c(=O)c3c(Nc4ccc(I)cc4F)n(C)c(=O)c(C)c32)c1 [Trametinib] (partner 0.02 µM)
# How it was run: as §1
# AZ505 + Trametinib = compound: C1CCC(CC1)N(CCNCCC2=C3C(=C(C=C2)O)NC(=O)CO3)C(=O)CCNCCC4=CC(=C(C=C4)Cl)Cl [AZ505] + CC(=O)Nc1cccc(-n2c(=O)n(C3CC3)c(=O)c3c(Nc4ccc(I)cc4F)n(C)c(=O)c(C)c32)c1 [Trametinib] (partner 0.02 µM)
# How it was run: as §1
# AZ505 + Lapatinib = compound: C1CCC(CC1)N(CCNCCC2=C3C(=C(C=C2)O)NC(=O)CO3)C(=O)CCNCCC4=CC(=C(C=C4)Cl)Cl [AZ505] + CS(=O)(=O)CCNCc1ccc(-c2ccc3ncnc(Nc4ccc(OCc5cccc(F)c5)c(Cl)c4)c3c2)o1 [Lapatinib] (partner 2 µM)
# How it was run: as §1
cell line,measurement,setting,value
UMC-11,relative viability,AZ505 + Pictilisib; first compound 0.08 µM,0.753
same,relative viability,AZ505 + Pictilisib; first compound 0.253 µM,0.766
same,relative viability,AZ505 + Pictilisib; first compound 0.8 µM,0.688
same,relative viability,AZ505 + Pictilisib; first compound 2.53 µM,0.972
same,relative viability,AZ505 + Pictilisib; first compound 8 µM,0.974
same,relative viability,Dactolisib + Trametinib; first compound 0.002 µM,0.642
same,relative viability,Dactolisib + Trametinib; first compound 0.006325 µM,0.637
same,relative viability,Dactolisib + Trametinib; first compound 0.02 µM,0.578
same,relative viability,Dactolisib + Trametinib; first compound 0.06325 µM,0.282
same,relative viability,Dactolisib + Trametinib; first compound 0.2 µM,0.2
same,relative viability,AZ505 + Trametinib; first compound 0.08 µM,0.588
same,relative viability,AZ505 + Trametinib; first compound 0.253 µM,0.643
same,relative viability,AZ505 + Trametinib; first compound 0.8 µM,0.697
same,relative viability,AZ505 + Trametinib; first compound 2.53 µM,0.789
same,relative viability,AZ505 + Trametinib; first compound 8 µM,0.672
same,relative viability,AZ505 + Lapatinib; first compound 0.08 µM,0.86
same,relative viability,AZ505 + Lapatinib; first compound 0.253 µM,0.943
same,relative viability,AZ505 + Lapatinib; first compound 0.8 µM,0.901
same,relative viability,AZ505 + Lapatinib; first compound 2.53 µM,1.11
same,relative viability,AZ505 + Lapatinib; first compound 8 µM,0.976
